In the CheMixHub ionic liquid set:
Several values for one entry are separate records, joined by “and”; a condition that tells them apart may be missing. Equal entries are not always repeated. ± gives the uncertainty stated by the source.

Experiment: xn = mol fraction of the nth substance listed
Conditions: for electrical conductivity: frequency 0.003 MHz

CC1COC(=O)O1 (centres undefined) + CCCC[n+]1ccn(C)c1.F[B-](F)(F)F
100 kPa
Conditions | electrical conductivity [S/m] | viscosity
296.9 K, x2 = 0.4 | 0.993 ± 0.06 | –
297 K, x2 = 0.6 | 0.747 ± 0.045 | –
297 K, x2 = 0.8 | 0.59 ± 0.035 | –
297.1 K, x2 = 0.2 | 1.26 ± 0.076 | –
297.1 K, x2 = 0.9 | 0.441 ± 0.026 | –
298.1 K, x2 = 0.2 | – | 6.8 ± 0.7 mPa·s and 6.5 ± 0.7 mPa·s
298.1 K, x2 = 0.4 | – | 14.8 ± 1.5 mPa·s and 14.4 ± 1.5 mPa·s
298.1 K, x2 = 0.6 | – | 32.4 ± 3.3 mPa·s and 32.5 ± 3.3 mPa·s
298.1 K, x2 = 0.8 | – | 45.9 ± 4.6 mPa·s and 46.1 ± 4.7 mPa·s
298.1 K, x2 = 0.9 | – | 55.6 ± 5.6 mPa·s and 55.7 ± 5.7 mPa·s
298.15 K, x2 = 0.15 | – | 5.2 ± 0.2 mPa·s
298.15 K, x2 = 0.2 | – | 6.9 ± 0.3 mPa·s
299.9 K, x2 = 0.2 | 1.3 ± 0.078 | –
299.9 K, x2 = 0.4 | 1.04 ± 0.062 | –
299.9 K, x2 = 0.8 | 0.63 ± 0.038 | –
299.9 K, x2 = 0.9 | 0.482 ± 0.029 | –
300 K, x2 = 0.6 | 0.794 ± 0.048 | –
302.5 K, x2 = 0.9 | 0.522 ± 0.031 | –
302.6 K, x2 = 0.2 | 1.32 ± 0.079 | –
302.6 K, x2 = 0.6 | 0.84 ± 0.05 | –
302.6 K, x2 = 0.8 | 0.675 ± 0.041 | –
302.7 K, x2 = 0.4 | 1.08 ± 0.065 | –
303 K, x2 = 0.2 | – | 5.6 ± 0.6 mPa·s
303 K, x2 = 0.4 | – | 11.5 ± 1.2 mPa·s
303 K, x2 = 0.6 | – | 22.4 ± 2.3 mPa·s
303 K, x2 = 0.8 | – | 33.1 ± 3.3 mPa·s
303 K, x2 = 0.9 | – | 45.7 ± 4.6 mPa·s
305.4 K, x2 = 0.8 | 0.72 ± 0.043 | –
305.4 K, x2 = 0.9 | 0.564 ± 0.034 | –
305.5 K, x2 = 0.2 | 1.34 ± 0.08 | –
305.5 K, x2 = 0.4 | 1.13 ± 0.068 | –
305.6 K, x2 = 0.6 | 0.882 ± 0.053 | –
308.1 K, x2 = 0.2 | – | 5.1 ± 0.5 mPa·s
308.1 K, x2 = 0.4 | – | 10.1 ± 1 mPa·s
308.1 K, x2 = 0.6 | – | 18.8 ± 1.9 mPa·s
308.1 K, x2 = 0.8 | – | 25.8 ± 2.6 mPa·s
308.1 K, x2 = 0.9 | – | 36.5 ± 3.7 mPa·s
308.2 K, x2 = 0.2 | 1.36 ± 0.082 | –
308.2 K, x2 = 0.4 | 1.17 ± 0.07 | –
308.2 K, x2 = 0.6 | 0.93 ± 0.056 | –
308.2 K, x2 = 0.8 | 0.759 ± 0.046 | –
308.2 K, x2 = 0.9 | 0.607 ± 0.036 | –
310.9 K, x2 = 0.2 | 1.4 ± 0.084 | –
311 K, x2 = 0.6 | 0.968 ± 0.058 | –
311 K, x2 = 0.8 | 0.803 ± 0.048 | –
311 K, x2 = 0.9 | 0.65 ± 0.039 | –
311.2 K, x2 = 0.4 | 1.21 ± 0.073 | –
313 K, x2 = 0.2 | – | 4.3 ± 0.4 mPa·s
313 K, x2 = 0.4 | – | 8.6 ± 0.9 mPa·s
313 K, x2 = 0.6 | – | 15.7 ± 1.6 mPa·s
313 K, x2 = 0.8 | – | 21.6 ± 2.2 mPa·s
313 K, x2 = 0.9 | – | 31 ± 3.1 mPa·s
313.6 K, x2 = 0.4 | 1.25 ± 0.075 | –
313.6 K, x2 = 0.6 | 1.01 ± 0.06 | –
313.6 K, x2 = 0.8 | 0.846 ± 0.051 | –
313.6 K, x2 = 0.9 | 0.691 ± 0.041 | –
313.9 K, x2 = 0.2 | 1.41 ± 0.084 | –
316.5 K, x2 = 0.6 | 1.05 ± 0.063 | –
316.5 K, x2 = 0.8 | 0.892 ± 0.054 | –
316.6 K, x2 = 0.9 | 0.74 ± 0.044 | –
316.7 K, x2 = 0.2 | 1.43 ± 0.086 | –
316.7 K, x2 = 0.4 | 1.29 ± 0.077 | –
318.1 K, x2 = 0.2 | – | 3.8 ± 0.4 mPa·s
318.1 K, x2 = 0.4 | – | 7.6 ± 0.8 mPa·s
318.1 K, x2 = 0.6 | – | 12.6 ± 1.3 mPa·s
318.1 K, x2 = 0.8 | – | 18.5 ± 1.9 mPa·s
318.1 K, x2 = 0.9 | – | 25.4 ± 2.6 mPa·s
319.2 K, x2 = 0.4 | 1.32 ± 0.079 | –
319.3 K, x2 = 0.6 | 1.1 ± 0.066 | –
319.3 K, x2 = 0.8 | 0.933 ± 0.056 | –
319.5 K, x2 = 0.9 | 0.786 ± 0.047 | –
319.7 K, x2 = 0.2 | 1.45 ± 0.087 | –
322 K, x2 = 0.8 | 0.979 ± 0.059 | –
322 K, x2 = 0.9 | 0.829 ± 0.05 | –
322.2 K, x2 = 0.2 | 1.47 ± 0.088 | –
322.2 K, x2 = 0.4 | 1.35 ± 0.081 | –
322.2 K, x2 = 0.6 | 1.15 ± 0.069 | –
323 K, x2 = 0.2 | – | 3 ± 0.3 mPa·s
323 K, x2 = 0.4 | – | 6.5 ± 0.7 mPa·s
323 K, x2 = 0.6 | – | 10.6 ± 1.1 mPa·s
323 K, x2 = 0.8 | – | 16 ± 1.6 mPa·s
323 K, x2 = 0.9 | – | 22.1 ± 2.2 mPa·s
324.8 K, x2 = 0.4 | 1.38 ± 0.083 | –
324.8 K, x2 = 0.8 | 1.02 ± 0.061 | –
324.8 K, x2 = 0.9 | 0.874 ± 0.052 | –
325 K, x2 = 0.6 | 1.18 ± 0.071 | –
325.1 K, x2 = 0.2 | 1.49 ± 0.09 | –
327.4 K, x2 = 0.4 | 1.41 ± 0.084 | –
327.6 K, x2 = 0.6 | 1.22 ± 0.073 | –
327.6 K, x2 = 0.8 | 1.06 ± 0.064 | –
327.6 K, x2 = 0.9 | 0.921 ± 0.055 | –
327.8 K, x2 = 0.2 | 1.51 ± 0.091 | –
328.1 K, x2 = 0.2 | – | 2.6 ± 0.3 mPa·s
328.1 K, x2 = 0.4 | – | 5.8 ± 0.6 mPa·s
328.1 K, x2 = 0.6 | – | 9.3 ± 0.9 mPa·s
328.1 K, x2 = 0.8 | – | 14.2 ± 1.4 mPa·s
328.1 K, x2 = 0.9 | – | 19.7 ± 2 mPa·s
330.4 K, x2 = 0.6 | 1.25 ± 0.075 | –
330.6 K, x2 = 0.2 | 1.53 ± 0.092 | –
330.6 K, x2 = 0.4 | 1.44 ± 0.086 | –
330.6 K, x2 = 0.8 | 1.11 ± 0.067 | –
330.6 K, x2 = 0.9 | 0.971 ± 0.058 | –
333 K, x2 = 0.2 | – | 2.4 ± 0.2 mPa·s
333 K, x2 = 0.4 | – | 5.4 ± 0.5 mPa·s
333 K, x2 = 0.6 | – | 8.2 ± 0.8 mPa·s
333 K, x2 = 0.8 | – | 12.4 ± 1.2 mPa·s
333 K, x2 = 0.9 | – | 17.2 ± 1.7 mPa·s
333.2 K, x2 = 0.4 | 1.46 ± 0.088 | –
333.2 K, x2 = 0.6 | 1.29 ± 0.077 | –
333.2 K, x2 = 0.8 | 1.15 ± 0.069 | –
333.3 K, x2 = 0.9 | 1.01 ± 0.061 | –
333.4 K, x2 = 0.2 | 1.56 ± 0.094 | –
335.9 K, x2 = 0.6 | 1.33 ± 0.08 | –
335.9 K, x2 = 0.8 | 1.19 ± 0.072 | –
335.9 K, x2 = 0.9 | 1.06 ± 0.064 | –
336.1 K, x2 = 0.2 | 1.55 ± 0.093 | –
336.1 K, x2 = 0.4 | 1.49 ± 0.09 | –
338.1 K, x2 = 0.2 | – | 2.1 ± 0.2 mPa·s
338.1 K, x2 = 0.4 | – | 4.9 ± 0.5 mPa·s
338.1 K, x2 = 0.6 | – | 7.2 ± 0.7 mPa·s
338.1 K, x2 = 0.8 | – | 10.6 ± 1.1 mPa·s
338.1 K, x2 = 0.9 | – | 15.9 ± 1.6 mPa·s
338.7 K, x2 = 0.9 | 1.1 ± 0.066 | –
338.8 K, x2 = 0.6 | 1.36 ± 0.082 | –
338.9 K, x2 = 0.8 | 1.24 ± 0.074 | –
339 K, x2 = 0.4 | 1.52 ± 0.091 | –
339.1 K, x2 = 0.2 | 1.58 ± 0.095 | –
341.5 K, x2 = 0.4 | 1.55 ± 0.093 | –
341.6 K, x2 = 0.8 | 1.27 ± 0.076 | –
341.6 K, x2 = 0.9 | 1.16 ± 0.069 | –
341.8 K, x2 = 0.2 | 1.59 ± 0.096 | –
341.8 K, x2 = 0.6 | 1.39 ± 0.084 | –
343 K, x2 = 0.2 | – | 2.1 ± 0.2 mPa·s
343 K, x2 = 0.4 | – | 4.4 ± 0.4 mPa·s
343 K, x2 = 0.6 | – | 6.1 ± 0.6 mPa·s
343 K, x2 = 0.8 | – | 9.5 ± 1 mPa·s
343 K, x2 = 0.9 | – | 14.3 ± 1.4 mPa·s
344.2 K, x2 = 0.4 | 1.59 ± 0.095 | –
344.2 K, x2 = 0.6 | 1.43 ± 0.086 | –
344.3 K, x2 = 0.9 | 1.19 ± 0.072 | –
344.4 K, x2 = 0.2 | 1.62 ± 0.098 | –
344.4 K, x2 = 0.8 | 1.32 ± 0.079 | –
347 K, x2 = 0.6 | 1.47 ± 0.088 | –
347.1 K, x2 = 0.8 | 1.36 ± 0.082 | –
347.1 K, x2 = 0.9 | 1.25 ± 0.075 | –
347.2 K, x2 = 0.2 | 1.64 ± 0.098 | –
347.2 K, x2 = 0.4 | 1.6 ± 0.096 | –
348.1 K, x2 = 0.2 | – | 2.1 ± 0.2 mPa·s
348.1 K, x2 = 0.4 | – | 3.9 ± 0.4 mPa·s
348.1 K, x2 = 0.6 | – | 5.6 ± 0.6 mPa·s
348.1 K, x2 = 0.8 | – | 8.5 ± 0.9 mPa·s
348.1 K, x2 = 0.9 | – | 13 ± 1.3 mPa·s
349.6 K, x2 = 0.2 | 1.66 ± 0.099 | –
349.9 K, x2 = 0.9 | 1.3 ± 0.078 | –
350 K, x2 = 0.4 | 1.62 ± 0.097 | –
350 K, x2 = 0.6 | 1.5 ± 0.09 | –
350 K, x2 = 0.8 | 1.4 ± 0.084 | –

CN(CCO)CCO + CCCC[n+]1ccn(C)c1.F[B-](F)(F)F
101 kPa
Conditions | viscosity [mPa·s]
293.15 K, x2 = 0.8999 | 105.6 ± 6.5
303.15 K, x2 = 0.3 | 43.7 ± 2.6
303.15 K, x2 = 0.8999 | 63.5 ± 3.9
323.15 K, x2 = 0.1974 | 17.8 ± 1.1
323.15 K, x2 = 0.6 | 18.8 ± 1.1
333.15 K, x2 = 0.1974 | 12.09 ± 0.73
333.15 K, x2 = 0.7998 | 16.8 ± 1
